# Reference: patent US4323602A, “Water repellent and preservative for wood products” (priority 1980, dated 1982)
# Tested on: Lenzites trabea (Madison strain 617)
# Test: NWMA Soil-Block Test (fungicide effectiveness, wood decay)
# Conditions: 5.4 times the threshold concentration (NWMA)
# Experimental: The product of Table 2, diluted with four parts water, was tested as a fungicide using a standard National Woodwork Manufacturers Association (NWMA) Soil-Block Test to determine and compare effectiveness with a Standard Solvent Based 5% Penta treating solution. This test method is used to determine the minimum amount of preservative that is effective in preventing decay of selected species of wood by selected fungi under optimum laboratory conditions.
# The test method may be briefly summarized as follows: Conditioned blocks of wood are impregnated with solutions of a preservative in water or organic solvent to form one or more series of gradient retentions of the preservative in the blocks. After periods of weathering, the impregnated blocks are exposed to the wood-destroying fungus, Lenzites trabea (Madison strain 617). The minimum amount of preservative which protects the impregnated blocks against decay by the fungus is defined as the threshold retention for that organism. Failure to protect is evidenced by loss of wood from the treated wood blocks, as indicated by a loss in weight.
# The threshold retention expressed in pounds of treating solution per cubic foot of wood represents the minimum amount of preservative necessary to protect wood from decay. […]
structure (smiles),measurement,value
"CCCCNC(=O)OCC#CI [Example 3-Iodo, 3-iodo-2-propynyl butyl carbamate]",Use Concentration,0.27%
